The values below come from PubChem BioAssay (NCI).

Values joined by “and” are separate entries in the source; they are usually repeats but may differ in a detail not shown here. Identical values can stand only once.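 Interpolation was linear, between the two tested concentrations surrounding the appropriate level; five concentrations were tested over 48 hours in 96-well plates. GI50 = concentration required for 50% inhibition of growth. TGI is the concentration that stops growth completely.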

Common to all, as to experiment: NCI-60 cell line screen, 48 h
Experiment [1] deals with UO-31 renal.
Experiment [2] relates to UACC-62 melanoma.
The test system of experiment [3] is HL-60(TB) leukemia.
Experiment [4] has as its system SK-MEL-5 melanoma.
The subject of experiment [5] is MALME-3M melanoma.
In experiment [6] the test system is SF-539 CNS.
For experiment [7], the system named is RPMI-8226 leukemia.
Experiment [8] has as its system EKVX NSCLC.
The subject of experiment [9] is MDA-MB-231 breast.
For experiment [10], the system named is MCF7 breast.

For the molecule `C=CCN=C1NC(=O)C(CC(=O)Nc2cccc(Cl)c2)S1` (configuration not stated), the TGI in [1], in experiment [2], in experiment [3], in [4], in [5] and in [6] was > 100 µM throughout. Further, the TGI in experiment [7] and in experiment [8] was > 100 µM throughout.
Take `OCC1CC2C=CCC(C2)C1` (configuration not stated): the TGI in experiment [1], in experiment [2], in experiment [3], in [4], in [5] and in experiment [6] was > 100 µM each time. Besides, the TGI in experiment [7] and in [8] was > 100 µM throughout.
Regarding `O=C(N/C(=C\c1cccc([N+](=O)[O-])c1)c1nc2c3c(ccc2[nH]1)C(=O)c1ccccc1C3=O)c1ccccc1`, the TGI in [1], in [2], in [4], in experiment [5], in experiment [6] and in experiment [7] was > 100 µM each time. The TGI in experiment [8] is > 100 µM.
Consider `CCCC[C@H](CCc1ccccc1)N(C(=O)OC)N1CCC[C@H]1COC`, for which the TGI is 35.4 µM in experiment [1]; 30.9 µM in experiment [2]; > 100 µM in experiment [3]; 32.9 µM in [4]; 32.1 µM in experiment [5]; 33 µM in experiment [6]. Also, the TGI in experiment [7] is > 100 µM; in experiment [8], 35.2 µM.
With `Cc1cc2[nH]c(=O)c3c4ncccc4cn3c2cc1C`, the GI50 in experiment [9] is 4.64 µM; in experiment [1] it was 1.68 µM; in [2] it was 2.06 µM; in experiment [6] it was 1.93 µM; in experiment [7] it was 2.66 µM; in [8], > 100 µM. Further, the TGI in experiment [9] is > 100 µM; in experiment [1] it was 4.58 µM; in experiment [2] it was 4.33 µM; in experiment [6] it was 3.98 µM; in experiment [7] it was 7.61 µM; in experiment [8], > 100 µM.
As to `CN1C(c2ccccc2)CC(=NO)CC1c1ccccc1` (configuration not stated), the TGI in [1] was > 100 µM; in [2], > 100 µM; in [3] it was 40.7 µM and 68 µM; in [4] it was > 100 µM; in [5], > 100 µM; in experiment [6], > 100 µM. Further, the TGI in experiment [7] was 55.5 µM; in experiment [8], > 100 µM. Besides, the GI50 in experiment [3] is 22 µM; in [10] it was 44.3 µM; in [4], 71.8 µM; in [7], 33 µM.
As to `CCCC(=O)Oc1ccc(/C=N/NC(N)=S)nc1`, the TGI in experiment [1], in experiment [2], in experiment [3], in experiment [4], in experiment [5] and in [6] was > 100 µM in each case. Besides, the TGI in experiment [7] and in experiment [8] was > 100 µM each time.
Turning to `CSc1ccc(Cc2cc(C(C)(C)C)cc(C(C)(C)C)c2O)cc1`, the TGI in [1] is 30.7 µM; in experiment [2], 29.2 µM; in experiment [3], 25.1 µM; in experiment [4], 28.9 µM; in experiment [5], 28.7 µM; in experiment [6], 31.8 µM. The TGI was determined as 20.8 µM in experiment [7] and 32.1 µM in [8].
Turning to `CCCCSC1CCSc2c1ccc1ccccc21` (configuration not stated), the TGI was > 100 µM in [1]; > 100 µM in [2]; > 100 µM in [3]; > 100 µM in experiment [4]; 46.9 µM in experiment [5]; > 100 µM in experiment [6]. The TGI in experiment [7] was > 100 µM.
Consider `Nc1ccc(C(=O)CC2(O)C(=O)Nc3ccccc32)cc1` (configuration not stated), for which the TGI in experiment [1], in [2], in experiment [3], in experiment [4], in experiment [5] and in [6] was > 100 µM each time. The TGI in [7] and in experiment [8] was > 100 µM each time.
Regarding `Clc1ccc(-c2nnc(-c3nn(-c4ccccc4)c4nc5ccccc5nc34)o2)cc1`, the TGI is > 100 µM in experiment [1]; > 100 µM in experiment [2]; 80.5 µM in experiment [3]; 32.3 µM in experiment [4]; > 100 µM in experiment [5]; > 100 µM in experiment [6]. Moreover, the TGI in experiment [7] and in experiment [8] was > 100 µM each time.
On to `CC1CCCc2c1n[nH]c2CC1CC(=O)NC(=O)C1` (configuration not stated), for which the TGI in [1], in experiment [2], in experiment [3], in [5], in [6] and in experiment [7] was > 100 µM throughout. Moreover, in experiment [8], the TGI is > 100 µM.
Consider `COC(=O)CCCCCOS(=O)(=O)c1ccc(C)cc1`, for which the TGI in experiment [1], in experiment [2], in experiment [3], in experiment [4], in [5] and in experiment [6] was > 100 µM each time. Besides, the TGI in experiment [8] was > 100 µM.
Consider `COc1cccc(/C=C2\N=C(Cl)OC2=O)c1O`, for which the TGI in [1], in experiment [2], in experiment [3], in [4], in experiment [5] and in experiment [6] was > 100 µM throughout. The TGI in [7] and in [8] was > 100 µM throughout.
For `COC(=O)[C@@H](C)C[C@H](Cc1ccccc1)NC(=O)c1csc([C@@H](C[C@H](C(C)C)N(C)C(=O)[C@@H](NC(=O)[C@H]2CCCCN2C)c2ccc(F)cc2)OC(C)=O)n1`, the GI50 was 0.00331 µM and 0.0025 µM in [2]; 0.00219 µM in experiment [3]; 0.00229 µM and 0.0025 µM in experiment [10]; 0.00535 µM and 0.0025 µM and 0.0101 µM in experiment [4]; 0.0215 µM and 0.0604 µM in experiment [6]; 0.00504 µM and 0.0025 µM and 0.0207 µM in experiment [7]. For the same molecule, the TGI in experiment [2] was 25 µM; in [10], 25 µM and > 100 µM; in experiment [6] it was 0.0662 µM and 0.615 µM; in experiment [7], 25 µM and 22 µM; in experiment [8] it was 25 µM and > 100 µM.
